Assay results reported in patent US20250320227A1, “MACROCYCLIC OREXIN RECEPTOR AGONISTS AND USES THEREOF” (Jazz Pharmaceuticals Ireland Limited, priority 2022, published 2025).

Target: T1, human recombinant OX2 (hOX2) receptors expressed in CHO cells (Homo sapiens, UniProt O43614)
T1 construct: host or cells: CHO cells (hOX2-CHO)
T1 sequence (O43614 1-444): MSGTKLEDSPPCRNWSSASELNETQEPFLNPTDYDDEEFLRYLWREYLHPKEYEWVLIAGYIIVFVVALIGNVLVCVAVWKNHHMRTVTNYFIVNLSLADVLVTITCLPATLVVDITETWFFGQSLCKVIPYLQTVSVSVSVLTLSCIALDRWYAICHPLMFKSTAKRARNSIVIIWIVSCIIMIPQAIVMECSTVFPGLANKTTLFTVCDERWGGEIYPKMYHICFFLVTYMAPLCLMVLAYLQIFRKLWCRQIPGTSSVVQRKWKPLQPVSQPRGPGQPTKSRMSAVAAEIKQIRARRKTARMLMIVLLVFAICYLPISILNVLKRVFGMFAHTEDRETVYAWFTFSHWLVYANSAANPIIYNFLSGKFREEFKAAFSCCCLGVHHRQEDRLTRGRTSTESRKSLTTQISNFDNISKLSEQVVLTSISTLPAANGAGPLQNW
Test: IP-1 accumulation assay (IP-One HTRF) in hOX2-CHO cells
Assay type: cell-based
Conditions: 60 min incubation at 37° C., mean of at least two independent experiments, read-out: EC50_OX2R Category
In short: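 IP-1 HTRF (665/615 ratio) after 60 min compound exposure at 37 °C, 11-point dilution, 0.5% DMSO, LiCl-containing HEPES-buffered HBSS pH 7.4. Response expressed as percent of maximal OX-A effect; EC50 by four-parameter logistic fit, averaged over at least two independent experiments in duplicate.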

SMILES | EC50 [nM]
Cc1ccnc2c1C1CCC(CC1)OCC1N(CCCC13COCC(=O)N3)C(=O)CO2 [Example 77a, (1′s,3S,16′R,19′s)-3′-methyl-8′,18′-dioxa-6′,11′-diazaspiro[morpholine-3,15′-tetracyclo[17.2.2.0^2,70.0^11,16]tricosane]-2′,4′,6′-triene-5,10′-dione] | < 100
O=C1CCC[C@@]2(CCCN3C(=O)COc4ccccc4[C@H]4CC[C@H](CC4)OC[C@H]32)N1 (single isomer, unassigned) [Example 58a] | < 100
O=C1CS[C@]2(CCCN3C(=O)COc4ccccc4[C@H]4CC[C@H](CC4)OC[C@H]32)N1 (single isomer, unassigned) [Example 68b] | > 10000
C[C@@H]1C[C@]2(COCC(=O)N2)[C@H]2CO[C@H]3CC[C@H](CC3)c3ccccc3OCCC(=O)N12 (single isomer, unassigned) [Example 13b] | 100 to 1000
O=C1CCC[C@]2(CCCN3C(=O)COc4ccccc4[C@H]4CC[C@H](CC4)OC[C@@H]32)N1 (single isomer, unassigned) [Example 58b] | > 10000
O=C1CCC2(CCCN3C(=O)COc4ccccc4[C@H]4CC[C@H](CC4)OCC32)N1 (mixture of isomers) [Example 69, Rel-(1′s,2R,16′R,19′s)-8′,18′-dioxa-11′-azaspiro[pyrrolidine-2,15′-tetracyclo-[17.2.2.0^2,70.0^11,16]tricosane]-2′(7′),3′,5′-triene-5,10′-dione] | 100 to 1000
C[C@@H]1C[C@]2(COCC(=O)N2)[C@H]2CO[C@H]3CC[C@H](CC3)c3cccc(F)c3OCC(=O)N12 (single isomer, unassigned) [Example 15b] | 1000 to 10000
O=C1COC[C@@]2(CCCN3C(=O)COc4ccc(F)c(F)c4[C@H]4CC[C@H](CC4)OC[C@H]32)N1 (single isomer, unassigned) [Example 43a] | < 100
Cc1cccc2c1[C@H]1CC[C@H](CC1)OC[C@@H]1N(CCC[C@@]13COCC(=O)N3)C(=O)CO2 (single isomer, unassigned) [Example 47a] | < 100
O=C1COCC2(CCCN3C(=O)COCc4ccccc4[C@H]4CC[C@H](CC4)OCC32)N1 (stereo partly drawn) [Example 55, Rel-(1′s,3S,17′R,20's)-9′,19′-dioxa-12′-azaspiro[morpholine-3,16′-tetracyclo[18.2.2.0^2,70.0^12,17]tetracosane]-2′(7′),3′,5′-triene-5,11′-dione] | 1000 to 10000
C[C@@H]1CC(=O)N2CC[C@]3(COCC(=O)N3)[C@H]2CO[C@H]2CC[C@H](CC2)c2ccccc2O1 (single isomer, unassigned) [Example 4d] | > 10000
O=C1COC[C@@]2(CCCN3C(=O)C4(CC4)COc4cccc(F)c4[C@H]4CC[C@H](CC4)OC[C@H]32)N1 (single isomer, unassigned) [Example 72b, (1′s,16′S,17′R,20′s)-3′-fluorodispiro[cyclopropane-1,10′-[8,19]dioxa-[12]azatetracyclo [18.2.2.0^2,^7.0^12,^17]tetracosane-16′,3″- morpholine]-2′,4′,6′-triene-5″,11′-dione] | < 100
O=C1NC2(CCCN3C(=O)COc4ccccc4[C@H]4CC[C@H](CC4)OCC32)CCO1 (mixture of isomers) [Example 57, Rel-(1′s,4R,16′R,19′s)-8′,18′-dioxa-11′-azaspiro[1,3-oxazinane-4,15′-tetracyclo[17.2.2.0^2,70.0^11,16]tricosane]-2′(7′),3′,5′-triene-2,10′-dione] | < 100
Cc1ccnc2c1[C@H]1CC[C@H](CC1)OC[C@H]1N(CCC[C@]13COCC(=O)N3)C(=O)CO2 [Example 77b, (1′s,3R,16′S,19′s)-3′-methyl-8′,18′-dioxa-6′, 11′-diazaspiro[morpholine-3,15′-tetracyclo[17.2.2.0^2,70.0^11,16]tricosane]-2′,4′,6′-triene-5,10′-dione] | > 10000
O=C1COC[C@]2(CCCN3C(=O)COc4c(F)cc(F)cc4[C@H]4CC[C@H](CC4)OC[C@@H]32)N1 (single isomer, unassigned) [Example 39b] | < 100
O=C1COC[C@@]2(CCCN3C(=O)COc4ccccc4[C@H]4CC[C@H](CC4)OC[C@H]32)N1 (single isomer, unassigned) [Example 32a] | < 100

SMILES | EC50 [nM]
C[C@@H]1C[C@@]2(COCC(=O)N2)[C@@H]2CO[C@H]3CC[C@H](CC3)c3cccnc3OCC(=O)N12 (single isomer, unassigned) [Example 23a] | 100 to 1000
C[C@@H]1CC2(COCC(=O)N2)C2Cc3cccc(c3F)-c3ccccc3CCCCC(=O)N21 (mixture of isomers) [Example 29, (14′R)-23′-fluoro-14′-methyl-13′-azaspiro[morpholine-3,16′tetracyclo-[17.3.1.0^2,70.0^13,17]tricosane]-1′(23′),2′(7′),3′,5′,19′,21′-hexaene-5,12′-dione] | > 10000
O=C1COCC2(CCCN3C(=O)CCCCOc4cccc(n4)[C@H]4CC[C@H](CC4)OCC32)N1 (mixture of isomers) [Example 76, (1′s,21′s)-7′,20′-dioxa-13′,26′-diazaspiro[morpholine-3,17′-tetracyclo[19.2.2.1^2,60.0^13,18]hexacosane]-2′,4′,6′(26′)-triene-5,12′-dione] | < 100
CC1CC(=O)N2CCC3(COCC(=O)N3)C2CO[C@H]2CC[C@H](CC2)c2ccccc2O1 (relative stereo) [Example 4, rel-(1′s,3S,16′R,19′s)-9′-methyl-8′,18′-dioxa-12′-azaspiro[morpholine-3,15′-tetracyclo[17.2.2.0^2,70.0^12,16]tricosane]-2′(7′),3′,5′-triene-5,11′-dione] | 100 to 1000
O=C1COC[C@@]2(CCN3C(=O)C4(CC4)COc4cccc(F)c4[C@H]4CC[C@H](CC4)OC[C@H]32)N1 (single isomer, unassigned) [Example 73b, (1′s,15′S,16′R,19′s)-3′-fluorodispiro [cyclopropane-1,10′-[8,18]dioxa-[12]azatetracyclo [17.2.2.0^2,^7.0^12,^16]tricosane-15′,3″- morpholine]-2′,4′,6′-triene-5″,11′-dione] | > 10000
C[C@@H]1COc2ccccc2[C@H]2CC[C@H](CC2)OC[C@H]2N(CC[C@]23COCC(=O)N3)C1=O (single isomer, unassigned) [Example 5a] | > 10000
CC1COc2ccccc2[C@H]2CC[C@H](CC2)OCC2N(CCC23COCC(=O)N3)C1=O (stereo partly drawn) [Example 5, (1′s,3S,16′R,19′s)-10′-methyl-8′,18′-dioxa-12′-azaspiro[morpholine-3,15-′tetracyclo[17.2.2.0^2,70.0^12,16]tricosane]-2′(7′), 3′,5′-triene-5, 11′-dione] | 100 to 1000
O=C1COC[C@@]2(CCCN3C(=O)COc4c(F)cc(F)cc4[C@H]4CC[C@H](CC4)OC[C@H]32)N1 (single isomer, unassigned) [Example 39a] | > 10000
CC1(C)Oc2ccccc2[C@H]2CC[C@H](CC2)OCC2N(CCCC23COCC(=O)N3)C1=O (stereo partly drawn) [Example 36, Rel-(1′s,3S,16′R,19′s)-9′,9′-dimethyl-8′,18′-dioxa-11′-azaspiro[morpholine-3,15′-tetracyclo[17.2.2.0^2,70.0^11,16]tricosane]-2′(7′),3′,5′-triene-5,10′-dione] | 100 to 1000
O=C1COCC2(CCN3C(=O)CCOc4ccccc4[C@H]4CC[C@H](CC4)OCC32)N1 (mixture of isomers) [Example 1, rel-(1's,3S,16′R,19′s)-8′,18′-dioxa-12′-azaspiro[morpholine-3,15′-tetracyclo[17.2.2.0^2,70.0^12,16]tricosane]-2′(7′),3′,5′-triene-5,11′-dione] | < 100
C[C@@H]1CC2(COCC(=O)N2)C2Cc3cccc(c3F)-c3ccccc3OCCCN(C)C(=O)N21 (mixture of isomers) [Example 31, (15′R)-24′-fluoro-12′, 15′-dimethyl-8′-oxa-12′, 14′-diazaspiro[morpholine-3,17′-tetracyclo[18.3.1.0^2,70.0^14,18]tetracosane]-1′(24′),2′(7′),3′,5′,20′,22′-hexaene-5,13′-dione] | > 10000
O=C1N[C@@]2(CCCN3C(=O)COc4ccccc4[C@H]4CC[C@H](CC4)OC[C@@H]32)COC1F (single isomer, unassigned) [Example 56b] | < 100
C[C@@H]1C[C@@]2(COCC(=O)N2)[C@@H]2CO[C@H]3CC[C@H](CC3)c3cccc(F)c3OCC(=O)N12 (single isomer, unassigned) [Example 15a] | < 100
O=C1CCCC2(CCCN3C(=O)COc4ccccc4[C@H]4CC[C@H](CC4)OCC32)N1 (mixture of isomers) [Example 58, Rel-(1′s,2S,16′R,19′s)-8′,18′-dioxa-11′-azaspiro[piperidine-2,15′-tetracyclo-[17.2.2.0^2,70.0^11,16]tricosane]-2′(7′),3′,5′-triene-6,10′-dione] | < 100
C[C@@H]1C[C@]2(COCC(=O)N2)[C@H]2CO[C@H]3CC[C@H](CC3)c3ccc(F)cc3OCC(=O)N12 [Example 19b, (1′s,3R,12′R,15′S, 18′s)-5′-fluoro-12′-methyl-8′,17′-dioxa-11′-azaspiro[morpholine-3,14′-tetracyclo [16.2.2.0^2,^7.0^11,^15]docosane]-2′,4′,6′-triene-5,10′-dione] | > 10000
O=C1COC[C@]2(CCCN3C(=O)COc4cccc(F)c4[C@H]4CC[C@H](CC4)OC[C@@H]32)N1 (single isomer, unassigned) [Example 40b] | 1000 to 10000
